Laboratory results as given in patent publication US8338368B2 (priority 2005, dated 2012).
Where two headings read alike, the source gives them in different places. Ends that are not written are not given here.

Experiments:
[1] = pH 7
[2] = target: Glucagon Receptor (Homo sapiens, UniProt P47871); test: Functional assay, cAMP synthesis (luciferase reporter), glucagon receptor
[3] = target: GLP-1 Receptor (Homo sapiens, UniProt P43220); test: cell-based
Chain of GLP-1 Receptor (P43220 24-463, species assumed): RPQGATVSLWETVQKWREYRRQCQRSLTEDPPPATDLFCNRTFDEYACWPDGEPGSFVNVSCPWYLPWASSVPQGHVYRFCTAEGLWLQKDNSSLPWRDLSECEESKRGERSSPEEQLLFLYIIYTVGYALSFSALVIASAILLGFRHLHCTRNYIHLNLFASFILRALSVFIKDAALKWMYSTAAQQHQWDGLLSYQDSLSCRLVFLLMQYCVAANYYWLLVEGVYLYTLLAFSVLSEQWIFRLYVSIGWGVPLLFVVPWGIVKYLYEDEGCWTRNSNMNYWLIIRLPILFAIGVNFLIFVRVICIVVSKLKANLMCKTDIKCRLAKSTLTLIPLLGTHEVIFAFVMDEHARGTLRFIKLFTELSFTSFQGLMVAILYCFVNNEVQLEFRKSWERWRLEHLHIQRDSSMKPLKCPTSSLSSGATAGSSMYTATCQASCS

Chain of Glucagon Receptor (P47871 26-477): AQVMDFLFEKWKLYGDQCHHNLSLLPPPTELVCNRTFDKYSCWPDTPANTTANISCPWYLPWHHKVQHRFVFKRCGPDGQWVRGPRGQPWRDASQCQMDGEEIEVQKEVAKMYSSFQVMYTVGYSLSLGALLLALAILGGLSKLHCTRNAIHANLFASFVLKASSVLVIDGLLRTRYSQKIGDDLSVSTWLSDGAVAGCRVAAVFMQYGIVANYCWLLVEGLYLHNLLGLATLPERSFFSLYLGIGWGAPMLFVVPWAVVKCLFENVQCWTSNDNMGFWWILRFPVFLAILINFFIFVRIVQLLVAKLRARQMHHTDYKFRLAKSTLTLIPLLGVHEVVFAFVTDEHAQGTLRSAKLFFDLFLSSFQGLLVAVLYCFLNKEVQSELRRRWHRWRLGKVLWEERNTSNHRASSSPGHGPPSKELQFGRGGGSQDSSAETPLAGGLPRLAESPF

Glucagon Cys^17 Mal-PEG-5K [Glucagon, Cys17PEG5K]
Percent Soluble [1]: 94%

Glucagon Cys^24 Maleimido, PEG-3.4K-dimer [Glucagon C24 Dimer]
EC50 ([2]; read-out: cAMP Induction Glucagon Receptor EC50, Table 3 (pegylated analogs), HEK293 cells co-transfected with glucagon receptor and CRE-luciferase, 5 h at 37° C.): 0.1 ± 0.05 nM

HSQGTFTSDYSRYLDSRRAKDFVQWLMNT [Glucagon R12 K20]
EC50 [2]: 0.84 ± 0.4 nM

HSQGTFTSDYSRYLDSRRAQDFVQWLMNK [Glucagon R12 K29]
EC50 [2]: 0.81 ± 0.49 nM | EC50 [3]: 0.41 ± 0.24 nM
